Read-outs that look alike come from different tables or passages of the source.
Tests used:
[1] = biological target: T1, human EAA4a receptor (Homo sapiens, UniProt Q13002); format: cell-based; parameters: transported to the cell surface in mature form, lacking the signal peptide and consisting of 877 amino acids; expressed in transfected cells; host or cells: Xenopus oocytes (stage V or VI), nuclear injection of pcDNAI/humEAA4a DNA; details: for oocyte response to agonist: tested at -60, -80 and -100 mV
T1 sequence (Q13002 32-908): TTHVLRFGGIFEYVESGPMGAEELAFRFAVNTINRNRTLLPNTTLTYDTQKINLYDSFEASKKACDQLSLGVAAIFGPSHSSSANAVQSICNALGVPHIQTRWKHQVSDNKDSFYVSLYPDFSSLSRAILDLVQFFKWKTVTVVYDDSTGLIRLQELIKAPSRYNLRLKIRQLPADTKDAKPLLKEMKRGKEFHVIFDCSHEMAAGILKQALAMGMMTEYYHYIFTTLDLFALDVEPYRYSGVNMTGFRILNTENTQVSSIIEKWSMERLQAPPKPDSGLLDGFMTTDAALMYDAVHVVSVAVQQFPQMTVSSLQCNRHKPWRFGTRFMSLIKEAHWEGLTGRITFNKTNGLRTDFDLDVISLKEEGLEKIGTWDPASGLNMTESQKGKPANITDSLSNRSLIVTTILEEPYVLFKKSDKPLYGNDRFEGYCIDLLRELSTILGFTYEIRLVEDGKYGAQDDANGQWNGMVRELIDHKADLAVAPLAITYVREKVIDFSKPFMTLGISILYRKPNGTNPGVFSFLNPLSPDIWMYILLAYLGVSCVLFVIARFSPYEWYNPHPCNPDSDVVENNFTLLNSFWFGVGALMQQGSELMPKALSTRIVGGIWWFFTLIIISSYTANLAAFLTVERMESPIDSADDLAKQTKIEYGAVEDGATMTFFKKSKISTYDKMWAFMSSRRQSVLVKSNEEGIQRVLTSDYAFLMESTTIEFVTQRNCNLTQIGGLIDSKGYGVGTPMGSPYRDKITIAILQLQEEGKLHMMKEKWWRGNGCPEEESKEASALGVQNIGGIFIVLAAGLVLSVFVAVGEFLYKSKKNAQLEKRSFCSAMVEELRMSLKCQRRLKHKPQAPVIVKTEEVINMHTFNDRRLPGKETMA
Procedure: Xenopus oocytes (stage V or VI) were harvested and the nucleus of the oocytes was injected with 5 ng of pcDNAI/humEAA4a DNA.

[2] = biological target: T1, human EAA4a receptor; details: COS cell membranes
Procedure: Transfected cells in the frozen state were resuspended in ice-cold distilled water using a hand homogenizer and centrifuged for 20 miutes at 50,000 g. The supernatant was discarded and the membrane pellet stored frozen at −70° C.
Proteins were determined using the Pierce Reagent with BSA as standard.
Binding assays were then performed, using an amount of COS-derived membrane equivalent to 25-100 ug as judged by protein determination and selected radiolabelled ligand. […] Samples were incubated on ice for 60 minutes, and bound and free ligand were then separated by rapid filtration using a PHD cell harvester and GF/B filters pre-soaked in ice-cold 0.3% polyethyleneimine. Filters were washed twice in 4 ml of the cold incubation buffer, then placed in scintillation vials with 5 ml of Beckman Ready-Protein Plus scintillation cocktail for counting.
Samples were incubated on ice for 60 minutes in plastic minivials, and bound and free ligand were separated by centrifugation for 30 minutes at 50,000 g. Pellets were washed twice in 4 ml of the cold incubation buffer, then 5 ml of Beckman Ready-Protein Plus scintillation cocktail was added, for counting.

SMILES | effect on the dose/response curve for L-glutamate ([1]; DNQX 2×10^-6M, FIG. 10) | effect on the glutamate response ([1]; oocytes, FIG. 8) | binding to EAA4a receptor [2] | oocyte response to agonist ([1]; 10^-4M) | oocyte response to agonist ([1]; NMDA 10^-4M with glycine 10^-6M)
O=C1N=c2cc([N+](=O)[O-])c([N+](=O)[O-])cc2=NC1=O [DNQX, 6,7-dinitroquinoxaline-2,3-dione] | parallel shift of the dose/response curve for L-glutamate to the right | blocked the glutamate response | – | – | –
CN[C@H](CC(=O)O)C(=O)O [NMDA, N-methyl-D-aspartate] | – | – | little or no demonstrable binding | did not respond | did not respond

Source: US6376200B1, “Kainate-binding, human CNS receptors of the EAA4 family” (priority 1992, dated 2002)
